tested on: HIV-1; experiment: Single-round infectious HIV-1 luciferase reporter virus infection of HeLa CD4 cells; type: cell-based; conditions: Human immunodeficiency virus 1, HeLa, 72 h, read-out: EC50 Group from Table 1
Experimental: • Virus production—Human embryonic Kidney cell line, 293T, was propagated in Dulbecco's Modified Eagle Medium (Invitrogen, Carlsbad, Calif.) containing 10% fetal Bovine serum (FBS, Sigma, St. Louis, Mo.). • Virus infection—Human epithelial cell line, HeLa, expressing the HIV-1 receptor CD4 was propagated in Dulbecco's Modified Eagle Medium (Invitrogen, Carlsbad, Calif.) containing 10% fetal Bovine serum (FBS, Sigma, St. Louis , Mo.) and supplemented with 0.2 mg/mL Geneticin (Invitrogen, Carlsbad, Calif.). Virus-Single-round infectious reporter virus was produced by co-transfecting human embryonic Kidney 293 cells with an HIV-1 envelope DNA expression vector and a proviral cDNA containing an envelope deletion mutation and the luciferase reporter gene inserted in place of HIV-1 nef sequences (Chen et al, Ref. 41). Transfections were performed using lipofectAMINE PLUS reagent as described by the manufacturer (Invitrogen, Carlsbad, Calif.). Experiment • 1. HeLa CD4 cells were plated in 96 well plates at a cell density of 1×10^4 cells per well in 100 μl Dulbecco's Modified Eagle Medium containing 10% fetal Bovine serum and incubated overnight. • 2. Compound was added in a 2 μl dimethylsulfoxide solution, so that the final assay concentration would be ≦10 μM. • 3. 100 μl of single-round infectious reporter virus in Dulbecco's Modified Eagle Medium was then added to the plated cells and compound at an approximate multiplicity of infection (MOI) of 0.01, resulting in a final volume of 200 μl per well. • 4. Virally-infected cells were incubated at 37 degrees Celsius, in a CO2 incubator, and harvested 72 h after infection. • 5. Viral infection was monitored by measuring luciferase expression from viral DNA in the infected cells using a luciferase reporter gene assay kit, as described by the manufacturer (Roche Molecular Biochemicals, Indianapolis, Ind.). Infected cell supernatants were removed and 50 μl of lysis buffer was added per well. After 15 minutes, 50 μl of freshly-reconstituted luciferase assay reagent was added per well. Luciferase activity was then quantified by measuring luminescence using a Wallac microbeta scintillation counter. • 6. The percent inhibition for each compound was calculated by quantifying the level of luciferase expression in cells infected in the presence of each compound as a percentage of that observed for cells infected in the absence of compound and subtracting such a determined value from 100. • 7. An EC50 provides a method for comparing the antiviral potency of the compounds of this disclosure. The effective concentration for fifty percent inhibition (EC50) was calculated with the Microsoft Excel Xlfit curve fitting software. For each compound, curves were generated from percent inhibition calculated at 10 different concentrations by using a four paramenter logistic model (model 205). Table 1 is the key for the data in Table 2. Results

Row | SMILES | EC50 [nM]
1 | N=C(c1ccccc1)N1CCN(C(=O)C(=O)c2c[nH]c3cccc(F)c23)CC1 [AM-01, 1-(4-fluoro-1H-indol-3-yl)-2-(4-(imino(phenyl)methyl)piperazin-1-yl)ethane-1,2-dione] | < 500
2 | N#C/N=C(\c1ccccc1)N1CCN(C(=O)C(=O)c2c[nH]c3cccc(F)c23)CC1 [AM-02] | < 500
3 | COc1ncc(OC)c2c(C(=O)C(=O)N3CCN(/C(=N/C#N)c4ccccc4)CC3)c[nH]c12 [AM-03] | < 500
4 | CN(C)S(=O)(=O)/N=C(\c1ccccc1)N1CCN(C(=O)C(=O)c2c[nH]c3ccccc23)CC1 [AM-04] | < 500
5 | CCN(CC)CC/N=C(\c1ccccc1)N1CCN(C(=O)C(=O)c2c[nH]c3c(Br)ccc(F)c23)CC1 [AM-05] | < 500
6 | O=C(C(=O)N1CCN(/C(=N/CCN2CCOCC2)c2ccccc2)CC1)c1c[nH]c2c(Br)ccc(F)c12 [AM-06] | < 500
7 | COc1ccc(Br)c2[nH]cc(C(=O)C(=O)N3CCN(/C(=N/S(C)(=O)=O)c4ccccc4)CC3)c12 [AM-07] | < 500
8 | O=C(C(=O)N1CCN(/C(=N/c2ccccc2)c2ccccc2)CC1)c1c[nH]c2cccc(F)c12 [AM-08, 1-(4-fluoro-1H-indol-3-yl)-2-(4-(phenyl(phenylimino)methyl)piperazin-1-yl)ethane-1,2-dione] | < 500
9 | CS(=O)(=O)/N=C(\c1ccccc1)N1CCN(C(=O)C(=O)c2c[nH]c3cccc(F)c23)CC1 [AM-09] | < 500
10 | N#C/N=C(\c1ccccc1)N1CCN(C(=O)C(=O)c2c[nH]c3c(-n4ccnn4)ncc(F)c23)CC1 [AM-10, ((4-(2-(4-fluoro-7-(1H-1,2,3-triazol-1-yl)-1H-pyrrolo[2,3-c]pyridin-3-yl)-2-oxoacetyl)piperazin-1-yl)(phenyl)methylene)cyanamide] | < 500
11 | COc1cnc(-n2ccc(-c3ccc(C#N)cc3)n2)c2[nH]cc(C(=O)C(=O)N3CCN(/C(=N/C#N)c4ccccc4)CC3)c12 [AM-11] | < 500
12 | C/N=C(\c1ccccc1)N1CCN(C(=O)C(=O)c2c[nH]c3ccccc23)CC1 [AM-12] | > 500
13 | CCC/N=C(\c1ccccc1)N1CCN(C(=O)C(=O)c2c[nH]c3ccccc23)CC1 [AM-13] | > 500
14 | CC(C)(C)/N=C(\c1ccccc1)N1CCN(C(=O)C(=O)c2c[nH]c3ccccc23)CC1 [AM-14] | > 500
15 | COc1cnc(-n2cnc(C)n2)c2[nH]cc(C(=O)C(=O)N3CCN(/C(=N/C#N)c4ccccc4)CC3)c12 [AM-16] | < 500
16 | N#C/N=C(\c1ccccc1)N1CCN(C(=O)C(=O)c2c[nH]c3c(Br)ccc(F)c23)CC1 [AM-17] | < 500
17 | C/N=C(\c1ccccc1)N1CCN(C(=O)C(=O)c2c[nH]c3cccc(F)c23)CC1 [AM-18] | > 500
18 | O=C(C(=O)N1CCN(/C(=N/CCOCCO)c2ccccc2)CC1)c1c[nH]c2cccc(F)c12 [AM-19] | > 500
19 | CN(C)CCC/N=C(\c1ccccc1)N1CCN(C(=O)C(=O)c2c[nH]c3cccc(F)c23)CC1 [AM-20] | > 500

Row | SMILES | EC50 [nM]
20 | O=C(C(=O)N1CCN(/C(=N/C2CC2)c2ccccc2)CC1)c1c[nH]c2cccc(F)c12 [AM-21] | > 500
21 | O=C(C(=O)N1CCN(/C(=N/c2cccnc2)c2ccccc2)CC1)c1c[nH]c2cccc(F)c12 [AM-22] | > 500
22 | O=C(C(=O)N1CCN(/C(=N/CCN2CCOCC2)c2ccccc2)CC1)c1c[nH]c2cccc(F)c12 [AM-23] | > 500
23 | COc1cnc(-n2ccnn2)c2[nH]cc(C(=O)C(=O)N3CCN(/C(=N/C#N)c4ccccc4)CC3)c12 [AM-24] | < 500
24 | C[C@@H]1CN(/C(=N/C#N)c2ccccc2)CCN1C(=O)C(=O)c1c[nH]c2c(-n3ccnn3)ncc(F)c12 [AM-25, (((R)-4-(2-(4-fluoro-7-(1H-1,2,3-triazol-1-yl)-1H-pyrrolo[2,3-c]pyridin-3-yl)-2-oxoacetyl)-3-methylpiperazin-1-yl)(phenyl)methylene)cyanamide] | < 500
25 | CN(C)S(=O)(=O)/N=C(\c1ccccc1)N1CCN(C(=O)C(=O)c2c[nH]c3cccc(F)c23)CC1 [AM-26] | > 500
26 | N#C/N=C(\c1ccccc1)N1CCN(C(=O)C(=O)c2c[nH]c3cc(F)cc(F)c23)CC1 [AM-28] | < 500
27 | N#C/N=C(\c1ccccc1)N1CCN(C(=O)C(=O)c2c[nH]c3c(F)ccc(F)c23)CC1 [AM-30] | < 500
28 | C[C@@H]1CN(C(=N)c2ccccc2)CCN1C(=O)C(=O)c1c[nH]c2c(-n3ccnn3)ncc(F)c12 [AM-33] | < 500
29 | COc1cnc(-n2ccnn2)c2[nH]cc(C(=O)C(=O)N3CCN(C(=N)c4ccccc4)CC3)c12 [AM-34] | < 500
30 | CC(C)NC(=O)/N=C(\c1ccccc1)N1CCN(C(=O)C(=O)c2c[nH]c3cccc(F)c23)CC1 [AM-36] | > 500
31 | CC1(C)OB(c2ccc(NC(=O)/N=C(\c3ccccc3)N3CCN(C(=O)C(=O)c4c[nH]c5cccc(F)c45)CC3)cc2)OC1(C)C [AM-50] | > 500
32 | CCc1ncn(-c2ncc(OC)c3c(C(=O)C(=O)N4CCN(/C(=N/C#N)c5ccccc5)CC4)c[nH]c23)n1 [AM-53] | < 500
33 | N=C(c1ccccn1)N1CCN(C(=O)C(=O)c2c[nH]c3c(-n4ccnn4)ncc(F)c23)CC1 [AM-54] | < 500
34 | COc1cnc(-n2cnc(C)n2)c2[nH]cc(C(=O)C(=O)N3CCN(C(=N)c4ccccn4)CC3)c12 [AM-55] | < 500
35 | O=C(C(=O)N1CCN(/C(=N/C2CCC2)c2ccccc2)CC1)c1c[nH]c2c(-n3ccnn3)ncc(F)c12 [AM-56] | < 500
36 | CN(C)CCC/N=C(\c1ccccc1)N1CCN(C(=O)C(=O)c2c[nH]c3c(-n4ccnn4)ncc(F)c23)CC1 [AM-58] | < 500
37 | CC/N=C(\c1ccccc1)N1CCN(C(=O)C(=O)c2c[nH]c3c(-n4ccnn4)ncc(F)c23)CC1 [AM-59] | < 500
38 | O=C(C(=O)N1CCN(/C(=N/CCOCCO)c2ccccc2)CC1)c1c[nH]c2c(-n3ccnn3)ncc(F)c12 [AM-60] | < 500

Row | SMILES | EC50 [nM]
39 | O=C(C(=O)N1CCN(/C(=N/C2CCCC2)c2ccccc2)CC1)c1c[nH]c2c(-n3ccnn3)ncc(F)c12 [AM-61] | < 500
40 | CCCC/N=C(\c1ccccc1)N1CCN(C(=O)C(=O)c2c[nH]c3c(-n4ccnn4)ncc(F)c23)CC1 [AM-62] | < 500
41 | O=C(C(=O)N1CCN(/C(=N/C2CCCCC2)c2ccccc2)CC1)c1c[nH]c2c(-n3ccnn3)ncc(F)c12 [AM-63] | < 500
42 | CC(C)/N=C(\c1ccccc1)N1CCN(C(=O)C(=O)c2c[nH]c3c(-n4ccnn4)ncc(F)c23)CC1 [AM-64] | < 500
43 | C[C@H]1CN(/C(=N/C#N)c2ccccc2)CCN1C(=O)C(=O)c1c[nH]c2c(-n3ccnn3)ncc(F)c12 [AM-65] | < 500
44 | CC[C@@H]1CN(/C(=N/C#N)c2ccccc2)CCN1C(=O)C(=O)c1c[nH]c2c(-n3ccnn3)ncc(F)c12 [AM-66] | < 500
45 | CN(C)S(=O)(=O)/N=C(\c1ccccc1)N1CCN(C(=O)C(=O)c2c[nH]c3c(-n4ccnn4)ncc(F)c23)CC1 [AM-67] | < 500
46 | CS(=O)(=O)/N=C(\c1ccccc1)N1CCN(C(=O)C(=O)c2c[nH]c3c(-n4ccnn4)ncc(F)c23)CC1 [AM-68] | < 500
47 | C/N=C(\c1ccccc1)N1CCN(C(=O)C(=O)c2c[nH]c3c(-n4ccnn4)ncc(F)c23)CC1 [AM-69] | < 500
48 | C/N=C(\c1ccccc1)N1CCN(C(=O)C(=O)c2c[nH]c3c(-n4cnc(C)n4)ncc(OC)c23)CC1 [AM-70] | < 500
49 | COc1cnc(-c2cnccn2)c2[nH]cc(C(=O)C(=O)N3CCN(C(=N)c4ccccc4)C[C@H]3C)c12 [AM-71] | < 500
50 | COc1cnc(-c2cnccn2)c2[nH]cc(C(=O)C(=O)N3CCN(C(=N)c4ccccc4)C[C@@H]3C)c12 [AM-72] | < 500
51 | N=C(c1ccccc1)N1CCN(C(=O)C(=O)c2c[nH]c3c(Br)ccc(F)c23)CC1 [AM-73] | < 500
52 | C[C@H]1CN(/C(=N/C#N)c2ccccc2)CCN1C(=O)C(=O)c1c[nH]c2c(Br)ccc(F)c12 [AM-76] | < 500
53 | N=C(c1ccccc1)N1CCN(C(=O)C(=O)c2c[nH]c3c(-c4nccs4)ccc(F)c23)CC1 [AM-77] | < 500
54 | C[C@H]1CN(/C(=N/C#N)c2ccccc2)CCN1C(=O)C(=O)c1c[nH]c2c(-c3nccs3)ccc(F)c12 [AM-78] | < 500
55 | C[C@H]1CN(/C(=N/C#N)c2ccccc2)CCN1C(=O)C(=O)c1c[nH]c2c(-c3ccccn3)ccc(F)c12 [AM-79] | < 500
56 | C[C@H]1CN(/C(=N/C#N)c2ccccc2)CCN1C(=O)C(=O)c1c[nH]c2c(-c3cc4ccccc4s3)ccc(F)c12 [AM-80] | < 500
57 | N#C/N=C(\c1ccccn1)N1CCN(C(=O)C(=O)c2c[nH]c3c(-n4ccnn4)ncc(F)c23)CC1 [AM-81] | < 500
